Experimental data as given in patent EP0153845A2, “CRF analogs” (THE SALK INSTITUTE FOR BIOLOGICAL STUDIES, priority 1984, dated 1985).
Square brackets hold non-standard residues; d marks the D form. Peptide text beside a SMILES is read from it. Nle = CCCC[C@H](N)C(=O)O

Experiments:
[1] = system: ACTH and B-END-LI secretion; assay: ACTH and β-END-LI secretion in vivo after intravenous hCRF in rats
Method: Plasma levels of ACTH and B-END-LI are elevated for at least 5-20 minutes following the intraveneous administration of hCRF to nembutal-anesthesized male rats and to quiescent male or female rats with indwelling intravenous cannulae.

[2] = Lowering of blood pressure, in vivo testing by the general procedure of Example III
[3] = molecular target: T1, cultured rat pituitary cells (Rattus norvegicus, UniProt P35353); assay: Block of ACTH and β-endorphin secretion by cultured rat pituitary cells by CRF antagonists (procedure of Example XLIII); format: cell-based; settings: for secretion of ACTH and β-END-LI (antagonist test): general procedure of Example XLIII
T1 sequence (P35353 24-415): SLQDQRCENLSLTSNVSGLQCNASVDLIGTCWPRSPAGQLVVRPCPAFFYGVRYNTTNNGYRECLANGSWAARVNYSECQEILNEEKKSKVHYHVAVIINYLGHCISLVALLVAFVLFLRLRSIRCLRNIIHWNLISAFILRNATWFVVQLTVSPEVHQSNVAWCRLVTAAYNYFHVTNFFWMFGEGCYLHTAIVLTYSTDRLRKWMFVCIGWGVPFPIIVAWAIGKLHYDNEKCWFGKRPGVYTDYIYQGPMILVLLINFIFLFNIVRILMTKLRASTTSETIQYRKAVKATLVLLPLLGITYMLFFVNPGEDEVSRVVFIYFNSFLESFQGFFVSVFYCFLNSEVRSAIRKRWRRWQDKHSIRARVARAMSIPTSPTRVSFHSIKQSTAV
Method: (§1) The effectiveness of synthetic CRF antagonists to block the secretion of ACTH and B-endorphin by cultured rat pituitary cells is measured using the procedure as generally set forth in Vale et al., Endocrinology, 91, 562 (1972). In vivo testing is carried out using the general procedure set forth in C. Rivier et al., Science, 218, 377 (1982).

[4] = system: GRF-stimulated secretion of GH; assay: Specificity: effect on GRF-stimulated GH secretion; format: cell-based
[5] = system: GnRH-stimulated secretion of LH and FSH; assay: Specificity: effect on GnRH-stimulated LH and FSH secretion; format: cell-based
[6] = system: TRF-stimulated secretion of TSH and prolactin; assay: Specificity: effect on TRF-stimulated TSH and prolactin secretion; format: cell-based
spontaneous ACTH release = assay: Spontaneous ACTH release by adrenalectomized rats; format: in vivo; settings: iv injection of 3 mg/kg BW (2.7 nmole)
Method: as §1
The in vivo effect of CRF antagonists is tested on the spontaneous ACTH release by adrenalectomized rats.

[7] = system: CRF-induced ACTH secretion; assay: CRF-induced ACTH secretion in intact, non-anesthetized rats; format: in vivo
[8] = system: ACTH rise due to ether-exposure; assay: Ether-exposure (stressor) induced ACTH rise in intact rats; format: in vivo

Compound	secretion of ACTH and β-END-LI (antagonist test) [3]	further results
CC[C@H](C)[C@H](NC(=O)[C@@H](NC(=O)[C@H](CCC(=O)O)NC(=O)[C@H](CCSC)NC(=O)[C@H](CC(C)C)NC(=O)[C@H](CCCCN)NC(=O)[C@H](CCCNC(=N)N)NC(=O)[C@H](CC(N)=O)NC(=O)[C@H](CO)NC(=O)[C@H](Cc1c[nH]cn1)NC(=O)[C@H](C)NC(=O)[C@H](CCC(N)=O)NC(=O)[C@H](CCC(N)=O)NC(=O)[C@H](C)NC(=O)[C@H](CC(C)C)NC(=O)[C@H](CCC(N)=O)NC(=O)[C@H](CCC(=O)O)NC(=O)[C@H](C)NC(=O)[C@H](CCCNC(=N)N)NC(=O)[C@H](C)NC(=O)[C@H](CCSC)NC(=O)[C@H](CCC(=O)O)NC(=O)[C@H](CC(C)C)NC(=O)[C@@H](NC(=O)[C@H](CCC(=O)O)NC(=O)[C@H](CCCNC(=N)N)NC(=O)[C@H](CC(C)C)NC(=O)[C@H](CC(C)C)NC(=O)[C@H](Cc1c[nH]cn1)NC(=O)[C@H](Cc1ccccc1)NC(=O)[C@@H](NC(=O)[C@H](CC(C)C)NC(=O)[C@H](CC(=O)O)NC(=O)[C@H](CC(C)C)NC(=O)[C@H](CO)NC(=O)[C@@H](NC(=O)[C@@H]1CCCN1C(=O)[C@@H]1CCCN1C(=O)[C@H](CCC(=O)O)NC(=O)[C@H](CCC(=O)O)NC(=O)[C@@H](N)CO)[C@@H](C)CC)[C@@H](C)O)C(C)C)[C@@H](C)CC)C(N)=O [hCRF]	–	time for which plasma levels of ACTH and B-END-LI are elevated ([1]; intravenous administration, nembutal-anesthetized male rats and quiescent male or female rats with indwelling intravenous cannulae): 5 to 20 min; ACTH and B-END-LI secretion in vivo ([1]; several rat preparations): powerful stimulator
H-Asp-CML-Thr-Leu-Glu-CML-Leu-Arg-Glu-Met-CML-Glu-Met-Ala-Lys-Ala-Glu-Gln-CML-Ala-Glu-Gln-Ala-Ala-CML-Asn-Arg-Leu-CML-Leu-Glu-Glu-Ala-NH2 [[CML^10,14,19,27,33,38]-AHC(9-41)]	stimulates	lowering of blood pressure [2]: very significant lowering of blood pressure
H-DLTFHLLREMLEMAKAEQEAEQAALNRLLLEEA-NH2 [AHC (9-41)]	–	type of inhibition of oCRF-stimulated ACTH secretion ([3]; different concentrations of oCRF, several concentrations of antagonist against oCRF (1 nM)): competitive inhibition; effect on the GRF-stimulated secretion of GH [4]: no effect; effect on the GnRH-stimulated secretion of LH and FSH [5]: no effect; effect on the TRF-stimulated secretion of TSH and prolactin [6]: no effect; plasma ACTH levels (spontaneous ACTH release) (spontaneous ACTH release): marked decrease; inhibition of CRF-induced ACTH secretion [7]: dose-related inhibition; ACTH rise due to ether-exposure [8]: prevents most, but not all
CCCC[C@H](NC(=O)[C@@H](NC(=O)[C@@H](N)CC(C)C)[C@@H](C)O)C(=O)N[C@@H](Cc1c[nH]cn1)C(=O)N[C@@H](CC(C)C)C(=O)N[C@@H](CC(C)C)C(=O)N[C@@H](CCCNC(=N)N)C(=O)N[C@@H](CCC(=O)O)C(=O)N[C@H](C(=O)N[C@@H](CC(C)C)C(=O)N[C@@H](CCC(=O)O)C(=O)N[C@@H](CCSC)C(=O)N[C@@H](C)C(=O)N[C@@H](CCCNC(=N)N)C(=O)N[C@@H](C)C(=O)N[C@@H](CCC(=O)O)C(=O)N[C@@H](CCC(N)=O)C(=O)N[C@@H](CC(C)C)C(=O)N[C@@H](C)C(=O)N[C@@H](CCC(N)=O)C(=O)N[C@@H](CCC(N)=O)C(=O)N[C@@H](C)C(=O)N[C@@H](Cc1c[nH]cn1)C(=O)N[C@@H](CO)C(=O)N[C@@H](CC(N)=O)C(=O)N[C@@H](CCCNC(=N)N)C(=O)N[C@@H](CCCCN)C(=O)N[C@@H](CC(C)C)C(=O)N[C@@H](CCSC)C(=O)N[C@@H](CCC(=O)O)C(=O)N[C@H](C(=O)N[C@H](C(N)=O)[C@@H](C)CC)[C@@H](C)CC)C(C)C [[N1e^12]-hCRF(10-41)] (H-LT[Nle]HLLREVLEMARAEQLAQQAHSNRKLMEII-NH2)	inhibits	–
H-DLTFALLREMLEMAKAEQEAEQAALNRLLLEEA-NH2 [[Ala^13]-AHC(9-41)]	inhibits	–
H-DLTFHLLREVAEMTRAEQLAQQAHSNRKLMEII-NH2 [(Ala^19, Thr^22]-hCRF(9-41)]	inhibits	–
H-LDLTFHLLREVLEMAKAEQLAQQAHSNRKLLEII-NH2 [[Lys^23, Leu^38]-hCRF(8-41)]	inhibits	–
CCCC[C@H](NC(=O)[C@H](CCC(=O)O)NC(=O)[C@H](CC(C)C)NC(=O)[C@H](CCCC)NC(=O)[C@H](CCC(=O)O)NC(=O)[C@H](CCCNC(=N)N)NC(=O)[C@H](CC(C)C)NC(=O)[C@H](CC(C)C)NC(=O)[C@H](Cc1c[nH]cn1)NC(=O)[C@H](Cc1ccccc1)NC(=O)[C@@H](NC(=O)[C@H](CC(C)C)NC(=O)[C@@H](N)CC(=O)O)[C@@H](C)O)C(=O)N[C@@H](C)C(=O)N[C@@H](CCCCN)C(=O)N[C@@H](C)C(=O)N[C@@H](CCC(=O)O)C(=O)N[C@@H](CCC(N)=O)C(=O)N[C@@H](CCC(=O)O)C(=O)N[C@@H](C)C(=O)N[C@@H](CCC(=O)O)C(=O)N[C@@H](CCC(N)=O)C(=O)N[C@@H](C)C(=O)N[C@@H](C)C(=O)N[C@@H](CC(C)C)C(=O)N[C@@H](CC(N)=O)C(=O)N[C@@H](CCCNC(=N)N)C(=O)N[C@@H](CC(C)C)C(=O)N[C@@H](CC(C)C)C(=O)N[C@@H](CC(C)C)C(=O)N[C@@H](CCC(=O)O)C(=O)N[C@@H](CCC(=O)O)C(=O)N[C@@H](C)C(N)=O [[Nie^18,21]-AHC(9-41)] (H-DLTFHLLRE[Nle]LE[Nle]AKAEQEAEQAALNRLLLEEA-NH2)	inhibits	–
H-DLSLELLRKMIEIEKQEKLKQQAANNRLLMDTI-NH2 [[Leu^26, Met^37]-sauvagine(8-40)]	inhibits	–
H-DLSLELLRKMIEIAKQEKEKQQAANNRLLMDTI-NH2 [[Ala^21, Met^37]-sauvagine(8-40)]	inhibits	–
CCCC[C@H](NC(=O)[C@H](CCC(=O)O)NC(=O)[C@H](CC(C)C)NC(=O)[C@@H](NC(=O)[C@H](CCC(=O)O)NC(=O)[C@H](CCCNC(=N)N)NC(=O)[C@H](CC(C)C)NC(=O)[C@H](CC(C)C)NC(=O)[C@H](Cc1c[nH]cn1)NC(=O)[C@H](Cc1ccccc1)NC(=O)[C@@H](NC(=O)[C@H](CC(C)C)NC(=O)[C@@H](N)CC(=O)O)[C@@H](C)O)C(C)C)C(=O)N[C@@H](C)C(=O)N[C@@H](CCCNC(=N)N)C(=O)N[C@@H](C)C(=O)N[C@@H](CCC(=O)O)C(=O)N[C@@H](CCC(N)=O)C(=O)N[C@@H](CC(C)C)C(=O)N[C@@H](C)C(=O)N[C@@H](CCC(N)=O)C(=O)N[C@@H](CCC(N)=O)C(=O)N[C@@H](C)C(=O)N[C@@H](Cc1ccc(O)cc1)C(=O)N[C@@H](CO)C(=O)N[C@@H](CC(N)=O)C(=O)N[C@@H](CCCNC(=N)N)C(=O)N[C@@H](CCCCN)C(=O)N[C@@H](CC(C)C)C(=O)N[C@@H](CCSC)C(=O)N[C@@H](CCC(=O)O)C(=O)N[C@H](C(=O)N[C@H](C(N)=O)[C@@H](C)CC)[C@@H](C)CC [[Nle^21, Tyr^32]-hCRF(9-41)] (H-DLTFHLLREVLE[Nle]ARAEQLAQQAYSNRKLMEII-NH2)	inhibits	–
H-DLTFHLLRNMIEMARNENQREQAGLNRKYLDEV-NH2 [Carp Urotensin 1(9-41)]	inhibits	–
Ac-DLTFHLLREVLEMARAEQLAQQAHSNRKLMDII-NH2 [[Acetyl-Asp^9, Asp^39]-hCRF(9-41)]	inhibits	–
H-DLTLELLREMLEMAKAEQEAEQAALNRLLLEEA-NH2 [[Leu^12, Glu^13]-AHC(9-41)]	inhibits	–
CCCC[C@H](NC(=O)[C@@H](NC(=O)[C@H](CCC(=O)O)NC(=O)[C@H](CC(C)C)NC(=O)[C@H](CC(C)C)NC(=O)[C@H](CCCCN)NC(=O)[C@H](CCCNC(=N)N)NC(=O)[C@H](CC(N)=O)NC(=O)[C@H](CO)NC(=O)[C@H](Cc1c[nH]cn1)NC(=O)[C@H](C)NC(=O)[C@H](CCC(N)=O)NC(=O)[C@H](CCC(N)=O)NC(=O)[C@H](C)NC(=O)[C@H](CC(C)C)NC(=O)[C@H](CCC(N)=O)NC(=O)[C@H](CCC(=O)O)NC(=O)[C@H](C)NC(=O)[C@H](CCCNC(=N)N)NC(=O)[C@H](C)NC(=O)[C@H](C)NC(=O)[C@H](CCC(=O)O)NC(=O)[C@H](CC(C)C)NC(=O)[C@@H](NC(=O)[C@H](CCC(=O)O)NC(=O)[C@H](CCCNC(=N)N)NC(=O)[C@H](CC(C)C)NC(=O)[C@H](CC(C)C)NC(=O)[C@H](Cc1c[nH]cn1)NC(=O)[C@H](Cc1ccccc1)NC(=O)[C@@H](NC(=O)[C@H](CC(C)C)NC(=O)[C@@H](N)CC(=O)O)[C@@H](C)O)C(C)C)[C@@H](C)CC)C(N)=O [[Ala, Leu^38, Nle^41]-hCRF(9-41)] (H-DLTFHLLREVLEAARAEQLAQQAHSNRKLLEI[Nle]-NH2)	inhibits	–
